According to publication PMC6696413 (Molecules, 2019):
Read-outs that look alike come from different tables or passages of the source.

Key:
Type in all cases: biochemical
acetylcholinesterase = acetylcholinesterase (Homo sapiens, UniProt P22303); test: biochemical
α-glucosidase = test: α-Glucosidase inhibitory activity experiment (PNPG, 405 nm); details: 96-well plate, PBS pH 7.4, 37 °C, PNPG substrate; acarbose positive control
Method: In a 96-well plate, group A was added 20 μL of 0.1 mol/L PBS (phosphate buffered saline (pH 7.4)), 20 μL of the sample (standard solution dissolved in DMSO to the concentration of 1.0 mg/mL) and 20 μL of α-glucosidase as a sample group (n = 3); Group B was added 40 μL of 0.1 mol/L PBS and 20 μL of the sample as the control group (n = 3); Group C was added 40 μL 0.1 mol/L PBS and 20 μL α-glucosidase as blank group (n = 3); after incubation for 15 min at 37 °C, then 2.5 mmol/L PNPG glycoside was added to each well and incubated at 37 °C. The reaction was stopped by adding 80 μL of a 0.2 mol/L Na2CO3 solution to each well after 15 min.

tyrosinase = test: Tyrosinase inhibitory activity experiment (L-tyrosine, 405 nm); details: 96-well plate, PBS, L-tyrosine substrate, 37 °C 30 min; kojic acid positive control
Method: In a 96-well plate, group A was added 80 μL of 0.1 mol/L PBS, 50 μL of solvent (solvent used to dissolve the sample: DMSO) and 50 μL of tyrosinase as a blank group (n = 2); group B was added 130 μL of 0.1 mol/L PBS and 50 μL of solvent as blank background group (n = 2); group C was added with 80 μL of 0.1 mol/L PBS, 50 μL of the sample (standard solution dissolved in DMSO to the concentration of 1.0 mg/mL) and 50 μL of tyrosinase as the experimental group (n = 2); group D were added 130 μL of 0.1 mol/L PBS and 50 μL of the sample as experimental background group (n = 2); finally, 20 μL of substrate (L-tyrosine) was added to each well to trigger the reaction, and the 96-well plate was further incubated at 37 °C.

[1] = 96-well plate, PBS, ACTI and DTNB, 37 °C 20 min, huperzine A positive control, read-out: Acetylcholinesterase inhibitory activity IC50 (converted)

acetylcholinesterase, sequence (P22303 32-614, species assumed): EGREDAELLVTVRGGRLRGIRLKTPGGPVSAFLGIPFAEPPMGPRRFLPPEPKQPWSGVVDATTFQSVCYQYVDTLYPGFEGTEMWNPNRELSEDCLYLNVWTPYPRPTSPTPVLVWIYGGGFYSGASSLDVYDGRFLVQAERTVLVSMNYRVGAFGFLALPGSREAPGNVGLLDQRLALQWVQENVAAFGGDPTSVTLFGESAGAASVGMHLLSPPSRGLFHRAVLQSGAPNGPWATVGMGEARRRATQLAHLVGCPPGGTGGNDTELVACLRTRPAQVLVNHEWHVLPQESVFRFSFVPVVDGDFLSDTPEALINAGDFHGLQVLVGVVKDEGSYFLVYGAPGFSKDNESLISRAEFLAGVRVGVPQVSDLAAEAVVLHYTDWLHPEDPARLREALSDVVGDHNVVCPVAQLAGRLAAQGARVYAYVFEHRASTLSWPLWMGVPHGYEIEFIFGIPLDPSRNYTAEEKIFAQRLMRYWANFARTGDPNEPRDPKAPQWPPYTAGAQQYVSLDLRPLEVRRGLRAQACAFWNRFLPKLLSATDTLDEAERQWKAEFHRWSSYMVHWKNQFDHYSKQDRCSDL

Row | Structure (SMILES) | IC50 (acetylcholinesterase) [µM] | α-glucosidase activity inhibition IC50 (α-glucosidase) [µg/mL] | Tyrosinase inhibitory activity IC50 (tyrosinase) [µg/mL] | IC50 (acetylcholinesterase; [1]) [µM]
1 | C[C@@H]1O[C@@H](OC[C@H]2O[C@@H](Oc3c(-c4ccc(O)c(O)c4)oc4cc(O)cc(O)c4c3=O)[C@H](O)[C@@H](O)[C@@H]2O)[C@H](O)[C@H](O)[C@H]1O [Compound 7, rutin] | 806 |  |  | 
2 | O=c1c(O)c(-c2ccc(O)cc2)oc2cc(O)cc(O)c12 [Compound 3, kaempferol] | 1760 |  |  | 
3 | COC1OC(CNC2C(OC)OC(CO)C(O)C2O)C(O)C(O)C1O [Compound 11, α-D-Alt-p-OMe (N2-6) α-D-Gle-p-OMe] |  | 318.44 | 302.42 | 1400
4 | O=c1cc(-c2ccc(O)c(O)c2)oc2cc(O)cc(O)c12 [Compound 1, luteolin] | 1660 |  | 1643.11 | 
5 | OCC1OC(OC2C(CO)OC(OC3C(CO)OC(OC4(CO)OC(CO)C(O)C4O)C(O)C3O)C(O)C2O)C(O)C(O)C1O [Compound 12, O-α-D-glucopyranosyl-(1→4)-α-D-glucopyranosyl-(1→4)-α-D-glucopyranosyl-(1→2)-β-D-fructofuranoside] |  | 444.88 | 1750.08 | 761
6 | CC(C)[C@@H](C)/C=C/[C@@H](C)[C@H]1CC[C@@H]2[C@]1(C)CC[C@H]1[C@]23C=C[C@]2(C[C@@H](O)CC[C@]12C)OO3 [Compound 8, ergosterol peroxide] |  | 452.50 | 202.37 | 1170
7 | CC#CC#CC#CC#CC#CC(CO)O[C@@H]1O[C@H](CO)[C@@H](O)[C@H](O)[C@H]1O (stereo partly drawn) [Compound 10, 2-β-D-glucopyranosyloxy-1-hydroxytrideca-3,5,7,9,11-pentayne] |  | 492.11 |  | 1450
